Common to all, as to assay type: cell-based
The target of assay [1] is T1, IRAK3 (Homo sapiens, UniProt Q9Y616).
T1 construct: endogenous in cells; host or cells: THP-1
T1 sequence (Q9Y616 1-596): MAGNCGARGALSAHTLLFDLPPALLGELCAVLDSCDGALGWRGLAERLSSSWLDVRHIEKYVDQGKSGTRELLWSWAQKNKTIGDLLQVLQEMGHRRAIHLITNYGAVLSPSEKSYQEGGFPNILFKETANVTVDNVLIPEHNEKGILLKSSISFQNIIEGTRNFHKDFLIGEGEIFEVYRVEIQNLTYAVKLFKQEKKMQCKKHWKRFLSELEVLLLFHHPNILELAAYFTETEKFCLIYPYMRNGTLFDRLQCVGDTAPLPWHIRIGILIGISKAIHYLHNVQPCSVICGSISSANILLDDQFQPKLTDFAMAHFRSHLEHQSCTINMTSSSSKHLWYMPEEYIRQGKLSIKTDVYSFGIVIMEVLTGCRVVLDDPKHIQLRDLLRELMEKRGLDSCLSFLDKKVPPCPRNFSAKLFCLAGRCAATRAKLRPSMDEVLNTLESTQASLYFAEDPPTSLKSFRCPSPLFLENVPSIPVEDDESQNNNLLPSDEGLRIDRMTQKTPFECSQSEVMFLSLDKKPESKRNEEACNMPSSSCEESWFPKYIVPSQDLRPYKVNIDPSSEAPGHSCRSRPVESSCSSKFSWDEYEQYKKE
The assay can be described thus: Expression proteomics in THP-1 cells, IRAK3 level. The note with it: IRAK3 protein log2 fold change, 24 h, 1.0 μM. The method, then:
(§1) THP-1 cells were seeded at a concentration of 3×10^6 cells in T175 flasks with 60 mL growth medium (RPM11640+10% FBS). […] of a 10× compound solution prepared in growth medium (DMSO), IAP PROTAC) was added and the cells were treated for the indicated time points (6 or 24 h) at 37° C., 5% CO2. For harvesting the cells were collected into falcon tubes on ice, centrifuged and washed twice in cold PBS (Life technologies). After the last washing step the supernatant was removed and the pellets were snap-frozen in liquid N2 and stored at −80° C. and lysed in 2% SDS for 3 min at 95° C. in a thermomixer (Thermo Fisher Scientific), followed by digestion of DNA with Benzonase at 37° C. for 1.5 h. Lysate was cleared by centrifugation an protein concentration in supernatant was determined by BCA assay.
(§2) Leukemia 25, 89-100 (2011).
(§3) Samples were dried in vacuo and resuspended in 0.05% trifluoroacetic acid in water. […]
(§4) Reporter ion intensities were read from raw data and multiplied with ion accumulation times (the unit is milliseconds) so as to yield a measure proportional to the number of ions;
(§5) Nat Biotech 29, 255-265 (2011). this measure is referred to as ion area Savitski, M. M. et al. Delayed Fragmentation and Optimized Isolation Width Settings for Improvement of Protein Identification and Accuracy of Isobaric Mass Tag Quantification on Orbitrap-Type Mass Spectrometers. […]

The target of assay [2] is T2, RPS6KA1 (Homo sapiens, UniProt Q15418).
T2 construct: endogenous in cells; host or cells: THP-1
T2 sequence (Q15418 whole entry): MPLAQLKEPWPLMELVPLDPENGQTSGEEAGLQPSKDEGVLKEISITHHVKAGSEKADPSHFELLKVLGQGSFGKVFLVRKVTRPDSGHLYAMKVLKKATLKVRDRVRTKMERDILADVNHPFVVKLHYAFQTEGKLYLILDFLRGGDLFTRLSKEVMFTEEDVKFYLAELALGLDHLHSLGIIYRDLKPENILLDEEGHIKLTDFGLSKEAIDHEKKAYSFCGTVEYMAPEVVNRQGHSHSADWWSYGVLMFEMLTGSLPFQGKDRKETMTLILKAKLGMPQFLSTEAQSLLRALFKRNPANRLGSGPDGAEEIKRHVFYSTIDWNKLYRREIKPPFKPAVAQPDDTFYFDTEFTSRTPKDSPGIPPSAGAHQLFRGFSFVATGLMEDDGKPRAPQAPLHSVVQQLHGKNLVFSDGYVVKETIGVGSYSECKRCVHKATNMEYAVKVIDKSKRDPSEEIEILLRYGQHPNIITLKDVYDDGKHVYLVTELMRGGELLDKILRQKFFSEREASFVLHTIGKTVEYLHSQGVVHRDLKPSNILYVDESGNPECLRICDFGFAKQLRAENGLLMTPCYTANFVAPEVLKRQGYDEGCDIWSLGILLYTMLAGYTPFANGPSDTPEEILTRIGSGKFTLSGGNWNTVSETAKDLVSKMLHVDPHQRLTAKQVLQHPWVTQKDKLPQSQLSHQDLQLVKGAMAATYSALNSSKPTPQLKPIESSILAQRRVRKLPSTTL
The assay can be described thus: Expression proteomics in THP-1 cells, RPS6KA1 level. The note with it: RPS6KA1 protein log2 fold change, 24 h, 1.0 μM. The method, then:
as §1, §2, §3, §4, §5

Assay [3] has as its target T3, AKT2 (Homo sapiens, UniProt P31751).
T3 construct: endogenous in cells; host or cells: THP-1
The assay can be described thus: Expression proteomics in THP-1 cells, AKT2 level. As to conditions: AKT2 protein log2 fold change, 24 h, 1.0 μM. The method, then:
as §1, §2, §3, §4, §5

The target of assay [4] is T4, BTK (Homo sapiens, UniProt Q06187).
T4 construct: endogenous in cells; host or cells: THP-1
T4 sequence (Q06187 whole entry): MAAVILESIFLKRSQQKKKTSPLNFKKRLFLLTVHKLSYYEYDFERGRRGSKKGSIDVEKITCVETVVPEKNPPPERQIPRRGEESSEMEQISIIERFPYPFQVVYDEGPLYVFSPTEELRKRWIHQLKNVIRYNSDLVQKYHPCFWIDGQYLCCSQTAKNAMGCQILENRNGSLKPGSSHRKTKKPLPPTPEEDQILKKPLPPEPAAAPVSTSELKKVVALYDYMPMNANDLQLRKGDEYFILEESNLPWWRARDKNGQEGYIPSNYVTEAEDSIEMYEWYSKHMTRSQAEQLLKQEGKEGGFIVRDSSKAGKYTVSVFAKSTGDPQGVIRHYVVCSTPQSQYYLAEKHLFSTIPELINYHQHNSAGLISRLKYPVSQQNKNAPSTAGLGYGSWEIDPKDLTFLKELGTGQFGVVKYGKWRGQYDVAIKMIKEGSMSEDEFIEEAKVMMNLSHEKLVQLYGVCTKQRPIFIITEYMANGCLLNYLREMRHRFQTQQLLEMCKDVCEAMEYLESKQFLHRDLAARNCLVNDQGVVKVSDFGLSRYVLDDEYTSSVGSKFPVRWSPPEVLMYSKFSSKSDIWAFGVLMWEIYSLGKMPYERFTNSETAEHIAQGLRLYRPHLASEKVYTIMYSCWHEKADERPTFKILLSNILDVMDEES
The assay can be described thus: Expression proteomics in THP-1 cells, BTK level. The note with it: BTK protein log2 fold change, 24 h, 1.0 μM. The method, then:
as §1, §2, §3, §4, §5

Results on one compound are retold here after US20190152946A1, “Novel Compounds” (GlaxoSmithKline Intellectual Property Development Limited, priority 2016, published 2019).

T3 sequence (P31751 whole entry): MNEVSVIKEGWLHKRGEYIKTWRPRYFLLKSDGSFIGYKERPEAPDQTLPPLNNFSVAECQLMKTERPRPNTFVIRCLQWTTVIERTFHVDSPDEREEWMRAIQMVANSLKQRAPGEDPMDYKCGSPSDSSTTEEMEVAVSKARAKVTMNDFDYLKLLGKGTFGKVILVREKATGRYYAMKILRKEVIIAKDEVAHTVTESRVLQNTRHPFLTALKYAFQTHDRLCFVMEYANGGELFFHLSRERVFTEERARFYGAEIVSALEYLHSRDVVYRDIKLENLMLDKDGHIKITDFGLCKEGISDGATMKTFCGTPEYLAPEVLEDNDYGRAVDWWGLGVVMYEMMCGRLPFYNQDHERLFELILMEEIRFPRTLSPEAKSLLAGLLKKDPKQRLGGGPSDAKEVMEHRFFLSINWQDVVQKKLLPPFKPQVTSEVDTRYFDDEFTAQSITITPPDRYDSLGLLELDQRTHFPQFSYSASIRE

Turning to `CNC(=O)c1ccccc1Nc1nc(Nc2ccc(N3CCN(CCOCCOCCOCCOc4ccc5c(c4)CN(C(=O)[C@@H](NC(=O)[C@H](C)NC)C(C)(C)C)[C@H](C(=O)N[C@@H]4CCCc6ccccc64)C5)CC3)cc2)ncc1Cl` [IAP, (S)-7-(2-(2-(2-(2-(4-(4-((5-Chloro-4-((2-(methylcarbamoyl)phenyl)amino)pyrimidin-2-yl)amino)phenyl)piperazin-1-yl)ethoxy)ethoxy)ethoxy)ethoxy)-2-((S)-3,3-dimethyl-2-((S)-2-(methylamino)propanamido)butanoyl)-N-((R)-1,2,3,4-tetrahydronaphthalen-1-yl)-1,2,3,4-tetrahydroisoquinoline-3-carboxamide], the “log2fc_IAP_24 h_1.0 μM_n1” value in assay [1] (replicate n1) was −2.28; in assay [2] (replicate n1) it was −1.21; in assay [3] (replicate n1) it was −1.01; in assay [4] (replicate n1), −1.53. Moreover, the “log2fc_IAP_24 h_1.0 μM_n2” value in assay [1] (replicate n2) is −2.47; in assay [2] (replicate n2), −1.24; in assay [3] (replicate n2) it was −0.89; in assay [4] (replicate n2), −1.66.
